Measurements as given in BindingDB's records for doi:10.7270/Q29G5KF0 (The Scripps Research Institute Molecular Screening Center, 2013).
pEC50: −log10 of the molar value.

biological target: Kallikrein-7 (Homo sapiens, UniProt P49862)
Sequence (P49862 whole entry): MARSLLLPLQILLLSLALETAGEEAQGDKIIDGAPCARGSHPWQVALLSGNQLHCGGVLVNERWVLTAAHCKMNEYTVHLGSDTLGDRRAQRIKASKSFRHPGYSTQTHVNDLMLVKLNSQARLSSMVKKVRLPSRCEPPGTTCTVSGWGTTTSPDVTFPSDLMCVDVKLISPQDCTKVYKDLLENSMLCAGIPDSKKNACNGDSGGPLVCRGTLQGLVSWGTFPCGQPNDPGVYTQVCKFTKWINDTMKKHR

Row | pEC50 | SMILES
1 | 4.63 | COc1ccccc1C1CC(c2ccc(C)cc2)=Nc2nnnn21 (stereo not given)
2 | < 4.16 | CC1=NC2=C(C(=O)CC(C)(C)C2)C(c2cccnc2)C1C#N (stereo not given) [2,7,7-trimethyl-5-oxo-4-pyridin-3-yl-1,4,6,8-tetrahydroquinoline-3-carbonitrile]
3 | 4.28 | COc1ccc(C2C(C(=O)N3CCOCC3)=C(C)N=C3CC(C)(C)CC(=O)C32)c(OC)c1 (stereo not given) [MLS000076547]
4 | < 4.16 | COC(=O)C1=CN=CC(C(=O)OC)C1c1ccc(C(=O)OC)cc1 (stereo not given) [MLS000111732]
5 | 4.92 | COc1ccccc1C1CC(c2ccccc2)=Nc2nnnn21 (stereo not given) [SMR000107979]
6 | < 4.16 | COCCN1Cc2cc(=O)n3c(nc4ccccc43)c2=C1N [SMR000369291]
7 | 4.68 | COC(=O)c1ccc(C2C3=C(CC(C)(C)CC3=O)N=C(C)C2C#N)cc1 (stereo not given) [methyl 4-(3-cyano-2,7,7-trimethyl-5-oxo-1,4,6,8-tetrahydroquinolin-4-yl)benzoate]
8 | < 4.16 | COC(=O)c1[nH]n(-c2ccccc2)c2c(O)n(-c3ccccc3OC)c(=O)c1-2 [methyl 5-(2-methoxyphenyl)-4,6-bis(oxidanylidene)-1-phenyl-3a,6a-dihydropyrrolo[3,4-c]pyrazole-3-carboxylate]
9 | 5.09 | COC(=O)CC1=C(C(=O)OC)C(c2ccccc2[N+](=O)[O-])C(C#N)C(=N)O1 [methyl (4S)-6-amino-5-cyano-2-(2-methoxy-2-oxoethyl)-4-(2-nitrophenyl)-4H-pyran-3-carboxylate]
10 | 5.34 | C=CCOC(=O)C1=C(C)N=C(SCC(=O)NC(=O)OCC)C(C#N)C1c1cccnc1 (stereo not given) [prop-2-enyl 5-cyano-6-[2-(ethoxycarbonylamino)-2-oxidanylidene-ethyl]sulfanyl-2-methyl-4-pyridin-3-yl-1,4-dihydropyridine-3-carboxylate]
